Results from publication PMC8348110, “A Novel Peptide Derived from the Transmembrane Domain of Romo1 Is a Promising Candidate for Sepsis Treatment and Multidrug-Resistant Bacteria” (International Journal of Molecular Sciences, 2021).
Values after ≈ are worked out from the molar mass of the structure shown. Residues, ends and D or L forms follow the SMILES beside them.

Columns and labels:
[1] = test system: HeLa cells; format: cell-based, human
Protocol: (§1) Mammalian cell viability was measured using a 3-(4,5-dimethylthiazol-2-yl)-2,5-diphenyltetrazolium bromide (MTT) assay in HeLa and HEK 293 cells. Cells were cultured on 96-well plates and incubated separately with AMPR-11, AMPR-21, AMPR-22, magainin 2, or daptomycin. After incubation for an hour, the cells were incubated with MTT solution (2 mg/mL of MTT in PBS) for an hour, and the media were removed, and dimethyl sulfoxide was added to allow the MTT formazans to solubilize. The optical density was measured using a SpectraMax Plus 384 microplate reader (Molecular Devices, San Jose, CA, USA) at 550 nm.

[2] = test system: Carbapenem-resistant K. pneumoniae, clinical isolate; format: cell-based, Klebsiella pneumoniae; details: 1 h
Source text: (§2) Acinetobacter baumannii (ATCC 19606), B. subtilis (ATCC 6633), E. aerogenes (ATCC 13048), E. coli (ATCC 25922), E. faecalis (ATCC 19433), E. faecium (ATCC 19434), K. pneumoniae (ATCC 13883), P. aeruginosa (ATCC 27853), S. aureus (ATCC 29213), S. sindenensis (ATCC 23963), and MRSA (ATCC 33591) were purchased from the American Type Culture Collection (ATCC; Gaithersburg, MD, USA). Streptococcus pneumoniae (NCCP 14585), vancomycin-resistant E. faecium (NCCP 11522), and vancomycin-resistant S. aureus (NCCP 15872) were purchased from the National Culture Collection for Pathogens (NCCP; Cheongju, Korea). The isolation and use of carbapenem-resistant bacterial strains from a patient were approved (2015AN0129) by the Institutional Review Board (IRB) of Korea University Hospital. […]
(§3) The minimum bactericidal concentration (MBC) was determined as previously described with minor modifications. […] The value of MBC was determined at the lowest concentrations at which no colonies were identified.
(§4) We used the CFU counting method to measure antibacterial activity, with all bacteria cultured to the mid-log phase in an appropriate broth medium. Bacterial CFUs were counted after overnight culture at 37 °C on TS or LB agar plates. The MBC value and antibacterial activity in blood components were determined as previously described. […]

[3] = test system: human PBMCs; test: White blood cell toxicity assay (LIVE/DEAD stain, flow cytometry); format: cell-based; details: freshly isolated PBMCs, 0 to 256 μg/mL for 30 min
Protocol: (§5) For the hemolytic assay, mouse and human whole blood was diluted with PBS (pH 7.4) and centrifuged for 10 min at 500× g. After removing the supernatant and rinsing the pellet three times with PBS, we resuspended the erythrocytes in PBS at 2% volume. The blood solution was added to the solution of peptides with two-fold serial dilution on a 96-well plate. After incubation for an hour at 37 °C, the plate was centrifuged at 2500× g for 10 min, and the absorbance of the supernatant was measured at 550 nm. The PBS-treated sample was the negative control, and the 0.1% Triton X-100–treated sample was the positive control. To measure white blood cell toxicity, mouse and human PBMCs were freshly isolated as previously described, and 70% ethanol (positive control) or AMPR-22 was administered using two-fold diluted concentrations (0 to 256 μg/mL) for 30 min. To measure cell death, a LIVE/DEAD® fixable green dead cell stain kit (Thermo Fisher Scientific, Waltham, MS, USA) was used following the manufacturer′s instructions, and flow cytometry was performed using a FACS Canto II (BD Biosciences, CA, USA). The toxicity of AMPR-22 was compared with negative (PBS-treated) and positive controls, and the data were analyzed using FlowJo software (Tree Star, OR, USA).

[4] = test system: mouse PBMCs; test: as above; format: cell-based; details: freshly isolated PBMCs, 0 to 256 μg/mL for 30 min
Protocol: as §5

[5] = test system: human embryotic kidney (HEK) 293 cells; format: cell-based
Protocol: as §1

[6] = test system: Carbapenem-resistant A. baumannii, clinical isolate; format: cell-based, Acinetobacter baumannii; details: 1 h
Source text: as §2, §3, §4

[7] = test system: Vancomycin-resistant E. faecium NCCP 11522; format: cell-based, Enterococcus faecium; details: Vancomycin-resistant NCCP 11522, 1 h
Protocol: The minimum bactericidal concentration (MBC) was determined as previously described with minor modifications. Briefly, bacteria were cultured in the mid-log phase and diluted to 5 × 10^5 colony-forming unit (CFU)/mL in 10 mM sodium phosphate buffer (pH 7.4) with a 1% volume of TS broth. They were incubated for 1 h with various peptides which were two-fold diluted serially from 64 μg/mL to 0 μg/mL concentrations in a 96-well plate. The samples were inoculated TS agar plate and incubated overnight at 37 °C. The value of MBC was determined at the lowest concentrations at which no colonies were identified.
We used the CFU counting method to measure antibacterial activity, with all bacteria cultured to the mid-log phase in an appropriate broth medium. Bacterial CFUs were counted after overnight culture at 37 °C on TS or LB agar plates. The MBC value and antibacterial activity in blood components were determined as previously described. Mouse and human whole blood were collected and diluted with PBS (pH 7.4) to measure the ex vivo antibacterial activity of AMPR-22. For that test, AMPR-22 (10 μg) was added to each whole blood solution and incubated at 37 °C with shaking at 200 rpm. At each time point, it was incubated with bacteria (1 × 10^3 CFU) for 30 min. Each sample was inoculated on an LB agar plate, and CFU counting was performed. […]

SMILES: CC[C@H](C)[C@H](NC(=O)CNC(=O)CNC(=O)[C@@H](NC(=O)[C@H](C)NC(=O)[C@H](CCSC)NC(=O)[C@H](Cc1ccccc1)NC(=O)[C@@H](NC(=O)CNC(=O)[C@H](Cc1ccccc1)NC(=O)[C@H](CCCCN)NC(=O)CNC(=O)CNC(=O)[C@H](CCCCN)NC(=O)[C@H](CCCCN)NC(=O)[C@H](CCSC)NC(=O)[C@H](CCSC)NC(=O)[C@H](CCCCN)NC(=O)[C@@H](N)CCCCN)[C@@H](C)O)[C@@H](C)CC)C(=O)N[C@@H](CCCNC(=N)N)C(=O)O [AMPR-22] (H-KKMMKKGGKFGTFMAIGGIR-OH)
- Cytotoxicity, HeLa cells [1]: slight cytotoxicity
- MBC Value, Carbapenem-resistant K. pneumoniae [2]: 4 µg/mL (≈ 1.83 µM)
- Cytotoxic activity against human leukocytes [3]: negligible cytotoxic activity
- Cytotoxic activity against mouse leukocytes [4]: negligible cytotoxic activity
- Cytotoxicity, HEK 293 cells [5]: slight cytotoxicity
- MBC Value, Carbapenem-resistant A. baumannii [6]: 1 µg/mL (≈ 0.457 µM)
- MBC Value, Vancomycin-resistant E. faecium [7]: 4 µg/mL (≈ 1.83 µM)
